Data: US9920061B2, “Imidazo[1,5-A]pyrimidinyl carboxamide compounds and their use in the treatment of medical disorders” (Lysosomal Therapeutics Inc., priority 2016, dated 2018)
≈ marks a conversion by molar mass, not a printed value. Like-named read-outs stand apart in the source and are kept apart here.

Assays:
[1] = biological target: T1, glucocerebrosidase (Gcase) (Homo sapiens, UniProt P04062); experiment: Glucocerebrosidase (Gcase) activation assay, 4-methylumbelliferyl-beta-D-glucopyranoside substrate, with saposin C; assay type: biochemical
T1 sequence (P04062 40-536): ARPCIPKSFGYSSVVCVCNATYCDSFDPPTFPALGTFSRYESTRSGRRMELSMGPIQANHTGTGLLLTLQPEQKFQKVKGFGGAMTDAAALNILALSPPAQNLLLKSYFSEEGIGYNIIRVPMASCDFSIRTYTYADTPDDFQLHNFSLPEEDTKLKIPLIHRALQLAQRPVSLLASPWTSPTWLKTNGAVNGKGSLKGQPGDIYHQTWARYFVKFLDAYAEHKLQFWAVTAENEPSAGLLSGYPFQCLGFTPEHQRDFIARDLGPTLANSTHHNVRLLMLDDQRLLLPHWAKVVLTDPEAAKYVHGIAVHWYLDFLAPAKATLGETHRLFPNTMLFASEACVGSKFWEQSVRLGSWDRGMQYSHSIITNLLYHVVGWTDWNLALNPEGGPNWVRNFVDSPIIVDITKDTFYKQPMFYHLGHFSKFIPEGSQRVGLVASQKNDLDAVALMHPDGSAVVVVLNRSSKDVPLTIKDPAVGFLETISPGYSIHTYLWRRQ
Summary of the method: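 Micellar buffer (176 mM K2HPO4/50 mM citric acid, pH 4.7; 0.32 mM triton, 0.37 mol % PS) holding 10 nM GCase and 100 nM saposin C, pre-incubated with compound 30 min at room temperature. Substrate final 2 mM before mixing; 15 min reaction, glycine pH 12.5 stop, fluorescence 365/440 nm. Screened at 1.0 and 0.1 μM; 8-point, 3-fold dose response.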

[2] = Compound solubility in water; assay type: physicochemical
[3] = test compound at 0.1 μM, read-out: Percent Gcase Activation, 0.1 μM Test Compound
[4] = test compound at 1.0 μM, read-out: Percent Gcase Activation, 1 μM Test Compound
[5] = 0.1 μM test compound, read-out: Percent Gcase Activation 0.1 μM Test Compound
[6] = 1 μM test compound, read-out: Percent Gcase Activation 1 μM Test Compound

Cc1cc(-c2cccc(-c3ncccn3)c2)nc2c(C(=O)NC(C3CC3)C(F)(F)F)ncn12 (stereo not drawn) [IV- 61]
activation at 0.1 µM [1, 3]: > 20%
activation at 1 µM [1, 4]: > 60%
solubility ([2]; in water): 1.1 µg/mL (≈ 2.43 µM)

Cc1cc(-c2cnsc2)nc2c(C(=O)N[C@H](C3CC3)C(F)(F)F)ncn12 [IV-52]
activation at 0.1 µM [1, 3]: 10 to 20%
activation at 1 µM [1, 4]: > 60%
solubility ([2]; in water): 15.4 µg/mL (≈ 40.4 µM)

C#Cc1cccc([C@H](NC(=O)c2ncn3c(C)cc(C)nc23)C(F)(F)F)c1 [III-5]
activation at 0.1 µM [1, 5]: > 20%
activation at 1 µM [1, 6]: > 60%
solubility [2]: 5.9 µg/mL (≈ 15.8 µM)

Cc1cc(-c2ccc(F)cc2)nc2c(C(=O)N[C@@H](C)C3CCC3)ncn12 [III-79]
activation at 0.1 µM [1, 5]: 10 to 20%
activation at 1 µM [1, 6]: > 60%
solubility [2]: 3 µg/mL (≈ 8.51 µM)

Cc1cc(C2CCCOC2)nc2c(C(=O)NC(C)(C)C3CC3)ncn12 (stereo not drawn) [III-78]
activation at 0.1 µM [1, 5]: < 10%
activation at 1 µM [1, 6]: < 30%
solubility [2]: 23.2 µg/mL (≈ 67.7 µM)

Cc1cc(-c2cncc(F)c2)nc2c(C(=O)N[C@@H](C)C3CC3)ncn12 [III-105]
activation at 0.1 µM [1, 5]: < 10%
activation at 1 µM [1, 6]: 30 to 60%
solubility [2]: 24.9 µg/mL (≈ 73.4 µM)

Cc1cc(NC(=O)c2ccccc2)nc2c(C(=O)NC(C3CC3)C(F)(F)F)ncn12 (stereo not drawn) [IV-6]
activation at 0.1 µM [1, 3]: < 10%
activation at 1 µM [1, 4]: 30 to 60%
solubility ([2]; in water): 15.1 µg/mL (≈ 36.2 µM)

COc1cccc(-c2cc(C)n3cnc(C(=O)NC(C4CC4)C(F)(F)F)c3n2)c1C#N (stereo not drawn) [IV-69]
activation at 0.1 µM [1, 3]: > 20%
activation at 1 µM [1, 4]: > 60%
solubility ([2]; in water): 1.3 µg/mL (≈ 3.03 µM)

CNc1cc(C)n2cnc(C(=O)NC(c3ccc(F)cc3)C(F)(F)F)c2n1 (stereo not drawn) [III-17]
activation at 0.1 µM [1, 5]: > 20%
activation at 1 µM [1, 6]: > 60%
solubility [2]: 0.9 µg/mL (≈ 2.36 µM)

Cc1cc(-c2ccccc2F)nc2c(C(=O)NC(C)C3CC3)ncn12 (stereo not drawn) [III-51]
activation at 0.1 µM [1, 5]: < 10%
activation at 1 µM [1, 6]: > 60%
solubility [2]: 22.7 µg/mL (≈ 67.1 µM)

COc1cccc(-c2cc(C)n3cnc(C(=O)N[C@H](C4CC4)C(F)(F)F)c3n2)n1 [IV-13]
activation at 0.1 µM [1, 3]: > 20%
activation at 1 µM [1, 4]: > 60%
solubility ([2]; in water): 1.9 µg/mL (≈ 4.69 µM)

Cc1cc(-c2cccc3ocnc23)nc2c(C(=O)NC(C3CC3)C(F)(F)F)ncn12 (stereo not drawn) [III-145]
activation at 0.1 µM [1, 5]: > 20%
activation at 1 µM [1, 6]: > 60%
solubility [2]: 1.6 µg/mL (≈ 3.85 µM)

Cc1cc(Oc2ccccc2F)nc2c(C(=O)N[C@@H](C)C3CC3)ncn12 [III-120]
activation at 0.1 µM [1, 5]: < 10%
activation at 1 µM [1, 6]: 30 to 60%
solubility [2]: 27.7 µg/mL (≈ 78.2 µM)

COc1cccc(-c2cc(C)n3cnc(C(=O)NC(C)C4CC4)c3n2)c1 (stereo not drawn) [III-55]
activation at 0.1 µM [1, 5]: > 20%
activation at 1 µM [1, 6]: > 60%
solubility [2]: 7.8 µg/mL (≈ 22.3 µM)

Cc1cc(-c2ccccc2C#N)nc2c(C(=O)NC(C3CC3)C(F)(F)F)ncn12 (stereo not drawn) [III-153]
activation at 0.1 µM [1, 5]: > 20%
activation at 1 µM [1, 6]: > 60%
solubility [2]: 0.5 µg/mL (≈ 1.25 µM)

COc1cccc(-c2cc(C)n3cnc(C(=O)N[C@H](C)C(F)(F)F)c3n2)c1 [IV-21]
activation at 0.1 µM [1, 3]: 10 to 20%
activation at 1 µM [1, 4]: > 60%
solubility ([2]; in water): 2.7 µg/mL (≈ 7.14 µM)

C#Cc1cccc(C2(NC(=O)c3ncn4c(C)cc(C)nc34)CC2)c1 [III-2]
activation at 0.1 µM [1, 5]: < 10%
activation at 1 µM [1, 6]: 30 to 60%
solubility [2]: 19.7 µg/mL (≈ 59.6 µM)

Cc1cc(-c2nccs2)nc2c(C(=O)NC(C3CC3)C(F)(F)F)ncn12 (stereo not drawn) [IV-50]
activation at 0.1 µM [1, 3]: 10 to 20%
activation at 1 µM [1, 4]: > 60%
solubility ([2]; in water): 1.5 µg/mL (≈ 3.93 µM)

C#Cc1ccc(NC(=O)c2ncn3c(C4CCCC4)cc(C)nc23)cc1 [III-1]
activation at 0.1 µM [1, 5]: 10 to 20%
activation at 1 µM [1, 6]: 30 to 60%
solubility [2]: 0.2 µg/mL (≈ 0.581 µM)

C#Cc1cccc([C@@H](NC(=O)c2ncn3c(C)cc(C)nc23)C(F)(F)F)c1 [III-4]
activation at 0.1 µM [1, 5]: > 20%
activation at 1 µM [1, 6]: > 60%
solubility [2]: 6.1 µg/mL (≈ 16.4 µM)

Cc1cc(-c2ccns2)nc2c(C(=O)N[C@H](C3CC3)C(F)(F)F)ncn12 [IV-7]
activation at 0.1 µM [1, 3]: 10 to 20%
activation at 1 µM [1, 4]: > 60%
solubility ([2]; in water): 9.9 µg/mL (≈ 26 µM)

COc1cccc(-c2cc(C)n3cnc(C(=O)NC(C)C(F)(F)F)c3n2)c1 (stereo not drawn) [III-167]
activation at 0.1 µM [1, 5]: > 20%
activation at 1 µM [1, 6]: > 60%
solubility [2]: 2.9 µg/mL (≈ 7.66 µM)

Cc1cc(-c2cccc(F)c2)nc2c(C(=O)NC(C3CC3)C(F)(F)F)ncn12 (stereo not drawn) [III-163]
activation at 0.1 µM [1, 5]: > 20%
activation at 1 µM [1, 6]: > 60%
solubility [2]: 0.4 µg/mL (≈ 1.02 µM)

Cc1cc(-c2cccc3ncoc23)nc2c(C(=O)NC(C3CC3)C(F)(F)F)ncn12 (stereo not drawn) [III-160]
activation at 0.1 µM [1, 5]: > 20%
activation at 1 µM [1, 6]: > 60%
solubility [2]: 8.9 µg/mL (≈ 21.4 µM)

COc1cccc(-c2cc(C)n3cnc(C(=O)N[C@@H](C4CC4)C(F)(F)F)c3n2)n1 [IV-14]
activation at 0.1 µM [1, 3]: > 20%
activation at 1 µM [1, 4]: > 60%
solubility ([2]; in water): 3.2 µg/mL (≈ 7.89 µM)
